From patent US20030207813A1, “Retroviral protease inhibitor combinations” (priority 1995, published 2003)

Columns and labels:
Type in all cases: cell-based, HIV-1
NL4(R8Q,M46I) = test: Viral isolate resistance assay per Markowitz et al., NL4(R8Q,M46I); conditions: Human immunodeficiency virus 1, read-out: Virus Isolate (EC50 nM) NL4(R8O, M46I)
From the text: (§1) RF represents the HIV-1 strain HIV-LRF and RFR represents a mixture of resistant strains obtained by selection of RF against the compound of Example 1. RFR comprises a mixture of viral strains having protease genotypes of G48V (14/40 clones); G48V, V82A (18/40 clones); G48V, L90S (2/40 clones); G48V, 154T, V82A (1/40 clones); G48M (1/40 clones); G48V, Q61H (1/40 clones); V13I, G48V (1/40 clones); G48V, F53L, V82A (1/40 clones); and G48V, V82A, C95Y (1/40 clones). RFR2 represents a mixture of resistant strains obtained by cloning RFR by three rounds of growth at limiting dilution. RFR2 comprises a mixture of viral strains having protease genotypes of G48V, V82A (13/15 clones); G17E, G48V, V82A (1/15 clones); and G48V, V82A, N37D, N88D (1/15 clones). RFRR represents a mixture of resistant strains obtained by selection of RF against the compounds of Examples 1 and 2 and then cloning by three rounds of growth at limiting dilution. RFRR comprises a mixture of viral strains having protease genotypes of G48V, 154T, L63P, V82A (7/9 clones); G48V, 154T, L63P, V82A, N88S (1/9 clones); and G48V, 154T, L63P, G73M, V82A (1/9 clones). SF162 represents the HIV-1 strain SF-162 and SF162R represents a mixture of resistant strains obtained by selection of SF162 against the compound of Example 1. SF162R comprises a mixture of viral strains having protease genotypes of M461, F53L, L63P, A71V, N88D (2/3 clones); and M46I, F53L, L63P, A71V, N88D, Q92R (1/3 clones). 89-959 represents the HIV-1 strain 89-959 and 89-959R represents a mixture of resistant strains obtained by selection of 89-959 against the compound of Example 2. 89-959R comprises a mixture of viral strains having protease genotypes of N88S (4/5 clones); and D25N, T26A, D30N, D37N, R41K, G73D, R87K, N88S (1/4 clones). NL4 represents the HIV-1 strain HIV-1NL4-3. NL4(G48V) represents a strain having a synthetically generated site-directed mutation in the protease from glycine to valine at amino acid position number 48. […]

NLA(P19-003) = test: Viral isolate resistance assay per Markowitz et al., NLA(P19-003); conditions: Human immunodeficiency virus 1, read-out: Virus Isolate (EC50 nM) NLA(P19-003)
From the text: as §1

NL4(P34-003) = test: Viral isolate resistance assay per Markowitz et al., NL4(P34-003); conditions: Human immunodeficiency virus 1; Table 11; selected against Example 9, 34 passages
From the text: as §1

CC(C)(C)NC(=O)[C@@H]1CN(Cc2cccnc2)CCN1C[C@@H](O)C[C@@H](Cc1ccccc1)C(=O)N[C@H]1c2ccccc2C[C@H]1O [Example 5, N-(2(R)-Hydroxy-1(S)-indanyl)-2(R)-phenylmethyl-4(S)-hydroxy-5-(1-(4-(3-pyridylmethyl)-2(S)-N′-(t-butylcarboxamido)-piperazinyl))-pentaneamide]
EC50 (NL4(R8Q,M46I)): 240 nM | EC50 (NLA(P19-003)): 240 nM | EC50 (NL4(P34-003)): 400 nM
